Laboratory results from the RepoRT retention time repository (doi:10.1016/j.jchromb.2020.122105).

Assays:
Conditions in all cases: stereoisomer not certain
[1] = RP, Waters CORTECS T3, 100 × 2.1 mm, 2.7 µm, 0.3 mL/min, estimated dead time 0.73 min; A: water + 0.1% formic acid, pH 3; B: methanol + 0.1% formic acid, pH 3; gradient (min/%B) 0/5 5/5 25/100 30/100 30.1/5 35/5
[2] = RP, Waters CORTECS T3, 100 × 2.1 mm, 2.7 µm, 0.15 mL/min, estimated dead time 1.5 min; A: water + 0.1% formic acid, pH 3; B: methanol + 0.1% formic acid, pH 3; gradient (min/%B) 0/0 1/0 6/5 30/100 35/100 35.1/0 40/0
[3] = RP, Waters CORTECS T3, 100 × 2.1 mm, 2.7 µm, 0.3 mL/min, estimated dead time 0.73 min; A: water + 0.1% formic acid, pH 3; B: methanol + 0.1% formic acid, pH 3; gradient (min/%B) 0/0 1/0 6/5 30/100 35/100 35.1/0 40/0
[4] = RP, Waters CORTECS T3, 100 × 2.1 mm, 2.7 µm, 0.25 mL/min, estimated dead time 0.88 min; A: water + 0.1% formic acid, pH 3; B: methanol + 0.1% formic acid, pH 3; gradient (min/%B) 0/0 1/0 6/5 30/100 35/100 35.1/0 40/0
[5] = RP, Waters CORTECS T3, 100 × 2.1 mm, 2.7 µm, 0.2 mL/min, estimated dead time 1.1 min; A: water + 0.045% formic acid + 0.11% ammonium hydroxide, pH 7; B: methanol; gradient (min/%B) 0/5 5/5 25/95 25.1/100 35/100 35.1/5 45/5
[6] = RP, Waters ACQUITY UPLC BEH C18, 100 × 2.1 mm, 1.7 µm, 0.1 mL/min, estimated dead time 2.2 min; A: water + 0.045% formic acid + 0.11% ammonium hydroxide, pH 7; B: methanol; gradient (min/%B) 0/5 5/5 25/95 25.1/100 35/100 35.1/5 45/5
[7] = RP, Waters ACQUITY UPLC BEH C18, 100 × 2.1 mm, 1.7 µm, 0.1 mL/min, estimated dead time 2.2 min; A: water + 0.1% formic acid, pH 3; B: methanol + 0.1% formic acid, pH 3; gradient (min/%B) 0/5 5/5 25/95 25.1/100 35/100 35.1/5 45/5
[8] = RP, Waters CORTECS T3, 100 × 2.1 mm, 2.7 µm, 0.3 mL/min, estimated dead time 0.73 min; A: water + 0.1% formic acid, pH 3; B: methanol + 0.1% formic acid, pH 3; gradient (min/%B) 0/5 5/5 25/95 25.1/100 35/100 35.1/5 45/5
[9] = RP, Waters CORTECS T3, 100 × 2.1 mm, 2.7 µm, 0.2 mL/min, estimated dead time 1.1 min; A: water + 0.1% formic acid, pH 3; B: methanol + 0.1% formic acid, pH 3; gradient (min/%B) 0/0 1/0 6/5 30/100 35/100 35.1/0 40/0
[10] = RP, Waters ACQUITY UPLC BEH C18, 100 × 2.1 mm, 1.7 µm, 0.2 mL/min, estimated dead time 1.1 min; A: water + 0.025% formic acid + 20 mM ammonium acetate + 0.055% ammonium hydroxide, pH 7; B: methanol; gradient (min/%B) 0/5 5/5 25/100 30/100 30.1/5 35/5
[11] = RP, Waters CORTECS T3, 100 × 2.1 mm, 2.7 µm, 0.3 mL/min, estimated dead time 0.73 min; A: water + 0.1% formic acid, pH 3; B: methanol + 0.1% formic acid, pH 3; gradient (min/%B) 0/0 5/0 25/100 30/100 30.1/0 35/0
[12] = RP, Waters ACQUITY UPLC BEH C18, 100 × 2.1 mm, 1.7 µm, 0.1 mL/min, estimated dead time 2.2 min; A: water + 0.1% formic acid, pH 3; B: methanol + 0.1% formic acid, pH 3; gradient (min/%B) 0/5 5/5 25/100 30/100 30.1/5 35/5
[13] = RP, Waters CORTECS T3, 100 × 2.1 mm, 2.7 µm, 0.1 mL/min, estimated dead time 2.2 min; A: water + 0.1% formic acid, pH 3; B: methanol + 0.1% formic acid, pH 3; gradient (min/%B) 0/0 1/0 6/5 30/100 35/100 35.1/0 40/0
[14] = RP, Waters CORTECS T3, 100 × 2.1 mm, 2.7 µm, 0.1 mL/min, estimated dead time 2.2 min; A: water + 0.1% formic acid, pH 3; B: methanol + 0.1% formic acid, pH 3; gradient (min/%B) 0/5 5/5 25/95 25.1/100 35/100 35.1/5 45/5
[15] = RP, Thermo Scientific Hypercarb, 150 × 2.1 mm, 5 µm, 0.1 mL/min, estimated dead time 3.3 min; A: water + 0.1% formic acid, pH 3; B: methanol + 0.1% formic acid, pH 3; gradient (min/%B) 0/5 5/5 20/100 35/100 35.1/5 45/5
[16] = RP, Waters ACQUITY UPLC BEH C18, 100 × 2.1 mm, 1.7 µm, 0.1 mL/min, estimated dead time 2.2 min; A: water + 0.1% formic acid, pH 3; B: methanol + 0.1% formic acid, pH 3; gradient (min/%B) 0/5 5/5 25/95 25.1/100 35/100 35.1/5 45/5; remark: listed apart in the source
[17] = RP, Waters CORTECS T3, 100 × 2.1 mm, 2.7 µm, 0.3 mL/min, estimated dead time 0.73 min; A: water + 0.1% formic acid, pH 3; B: methanol + 0.1% formic acid, pH 3; gradient (min/%B) 0/0 5/0 25/100 30/100 30.1/0 35/0; remark: listed apart in the source
[18] = RP, Waters ACQUITY UPLC BEH C18, 100 × 2.1 mm, 1.7 µm, 0.2 mL/min, estimated dead time 1.1 min; A: water + 0.025% formic acid + 20 mM ammonium acetate + 0.055% ammonium hydroxide, pH 7; B: methanol; gradient (min/%B) 0/5 5/5 25/100 30/100 30.1/5 35/5; remark: listed apart in the source
[19] = RP, Waters ACQUITY UPLC BEH C18, 100 × 2.1 mm, 1.7 µm, 0.2 mL/min, estimated dead time 1.1 min; A: water + 0.1% formic acid, pH 3; B: methanol + 0.1% formic acid, pH 3; gradient (min/%B) 0/5 5/5 25/100 30/100 30.1/5 35/5
[20] = RP, Waters CORTECS T3, 100 × 2.1 mm, 2.7 µm, 0.2 mL/min, estimated dead time 1.1 min; A: water + 0.1% formic acid, pH 3; B: methanol + 0.1% formic acid, pH 3; gradient (min/%B) 0/0 1/0 6/5 30/100 35/100 35.1/0 40/0; remark: listed apart in the source
[21] = HILIC, Merck SeQuant ZIC-HILIC, 150 × 2.1 mm, 5 µm, 0.75 mL/min, estimated dead time 0.44 min; A: water + 0.1% acetic acid + 10 mM ammonium acetate, pH 4; B: 5% water + 95% acetonitrile + 0.1% acetic acid + 10 mM ammonium acetate, pH 4; gradient (min/%B) 0/95 5/95 20/57 25/57 30/95 40/95
[22] = RP, Waters CORTECS T3, 100 × 2.1 mm, 2.7 µm, 0.2 mL/min, estimated dead time 1.1 min; A: water + 0.1% formic acid, pH 3; B: methanol + 0.1% formic acid, pH 3; gradient (min/%B) 0/5 5/5 25/95 25.1/100 35/100 35.1/5 45/5
[23] = RP, Waters CORTECS T3, 100 × 2.1 mm, 2.7 µm, 0.3 mL/min, estimated dead time 0.73 min; A: water + 0.1% formic acid, pH 3; B: methanol + 0.1% formic acid, pH 3; gradient (min/%B) 0/0 1/0 6/5 30/100 35/100 35.1/0 40/0; remark: listed apart in the source
[24] = RP, Waters CORTECS T3, 100 × 2.1 mm, 2.7 µm, 0.25 mL/min, estimated dead time 0.88 min; A: water + 0.1% formic acid, pH 3; B: methanol + 0.1% formic acid, pH 3; gradient (min/%B) 0/5 5/5 25/95 25.1/100 35/100 35.1/5 45/5
[25] = RP, Waters ACQUITY UPLC BEH C18, 100 × 2.1 mm, 1.7 µm, 0.1 mL/min, estimated dead time 2.2 min; A: water + 0.1% formic acid, pH 3; B: methanol + 0.1% formic acid, pH 3; gradient (min/%B) 0/5 5/5 25/95 25.1/100 35/100 35.1/5 45/5; remark: listed apart in the source

LC retention time [1] [min]	LC retention time [2] [min]	LC retention time [3] [min]	LC retention time [4] [min]	LC retention time [5] [min]	LC retention time [6] [min]	LC retention time [7] [min]	LC retention time [8] [min]	LC retention time [9] [min]	LC retention time [10] [min]	LC retention time [11] [min]	LC retention time [12] [min]	LC retention time [14] [min]	LC retention time [15] [min]	LC retention time [16] [min]	Compound	further results
1.91	5.81	2.69	3.26	2.92	5.83	2.75	1.89	4.15	3.24	2.85	5.99	5.41			O=c1cccc[nH]1 [2-HYDROXYPYRIDINE]	LC retention time [13]: 2.74 min
	1.78		1.09	11.7	16.1			1.34	11.2	0.89	2.74		4.86	2.66	CN1CCC[C@H]1c1cccnc1 [(S)-NICOTINE]	
	1.78	0.92	1.09			2.72	0.9	1.34			2.74				Nc1ncnc2c1ncn2C1CC(O)C(COP(=O)(O)O)O1 (centres undefined) [DAMP]	LC retention time [17]: 0.89 min; LC retention time [18]: 1.36 min; LC retention time [19]: 1.38 min; LC retention time [20]: 1.35 min; LC retention time [21]: 12.9 min; LC retention time [22]: 2.67 min; LC retention time [23]: 0.92 min; LC retention time [24]: 1.08 min; LC retention time [25]: 2.7 min
			1.09			2.84	0.9								Nc1nc2c(ncn2C2OC(COP(=O)(O)O)C(O)C2O)c(=O)[nH]1 (centres undefined) [GUANOSINE 5'-MONOPHOSPHATE]	LC retention time [17]: 0.89 min; LC retention time [19]: 1.79 min; LC retention time [20]: 1.35 min; LC retention time [22]: 2.67 min; LC retention time [23]: 0.92 min; LC retention time [24]: 1.08 min
1.2	3.31	1.57	1.9	3.68	6.91	2.69	1.17	2.36	3.89	1.63	3.66	3.38	24.4		NC(=O)c1cccnc1 [NICOTINAMIDE]	
						2.66							5.02		C[N+](C)(C)CCOP(=O)([O-])OCC(O)CO (centres undefined) [SN-GLYCERO-3-PHOSPHOCHOLINE]	
18.5	23.9	21.6	22.1				19.1	22.8		18.9	22.7			23.5	NC(Cc1cc(I)c(Oc2cc(I)c(O)c(I)c2)c(I)c1)C(=O)O (centres undefined) [THYROXINE]	LC retention time [13]: 20.3 min
0.95	1.85		1.11			2.69		1.36		0.91	2.76	2.68	21.2		O=c1cc[nH]c(=O)[nH]1 [URACIL]	

Compound	LC retention time [1] [min]	LC retention time [2] [min]	LC retention time [3] [min]	LC retention time [4] [min]	LC retention time [5] [min]	LC retention time [6] [min]	LC retention time [7] [min]	LC retention time [8] [min]	LC retention time [9] [min]	LC retention time [10] [min]	LC retention time [11] [min]	LC retention time [12] [min]	LC retention time [14] [min]	LC retention time [15] [min]	LC retention time [16] [min]	further results
CCCCCCCCCC(=O)OCC(COP(=O)([O-])OCC[N+](C)(C)C)OC(=O)CCCCCCCCC (centres undefined) [1,2-DIDECANOYL-SN-GLYCERO-3-PHOSPHOCHOLINE]	24.3	30.9	28.7	29.2	26	29.7	29.7	25.3	29.8	26						
NCCc1c[nH]c2ccc(O)cc12 [SEROTONIN]					10.7	13.9						2.74		14.4	2.66	
